From ChEMBL document CHEMBL4428085, “Benzimidazole analogs as WTA biosynthesis inhibitors targeting methicillin resistant Staphylococcus aureus” (Bioorg Med Chem Lett, 2016)

Key:
[1] = Inhibition of Staphylococcus aureus TarO assessed as suppression of bacteriophageK-mediated cell lysis
[2] = tested on: Staphylococcus aureus subsp. aureus COL; assay: Inhibition of methicillin-resistant Staphylococcus aureus COL TarO assessed as concentration of compound for potentiation of action of imipenem-mediated bacterial growth inhibition by 95 %
[3] = Inhibition of Staphylococcus aureus TarO
[4] = tested on: Staphylococcus epidermidis; assay: Inhibition of methicillin-resistant Staphylococcus epidermidis TarO assessed as potentiation of action of imipenem-mediated bacterial growth inhibition by measuring percentage of compound MITC95<=25 uM for 25 isolates; design: scale not given: the % may be the effect or the level left
[5] = Inhibition of Staphylococcus aureus TarO assessed as reversal of targocil-mediated bacterial growth inhibition
Staphylococcus aureus [6] = assay: Inhibition of methicillin-resistant Staphylococcus aureus TarO assessed as potentiation of action of imipenem-mediated bacterial growth inhibition by measuring percentage of compound MITC95<=25 uM for 25 isolates; design: scale not given: the % may be the effect or the level left
Staphylococcus aureus [7] = assay: Antibacterial activity against methicillin-resistant Staphylococcus aureus COL; assay type: functional
[8] = Half life in rat at 2 mg/kg, po; assay type: ADME, organism-based; conditions: in vivo
[9] = AUC (0 to 24 hrs) in rat at 2 mg/kg, po; assay type: ADME, organism-based; design: dose 2 mg/kg, time < 24 hr, route oral; conditions: in vivo
[10] = Oral bioavailability in rat at 2 mg/kg; assay type: ADME, organism-based; conditions: in vivo

| SMILES | EC50 [1] [nM] | MITC95 [2] [µM] | IC50 [3] [nM] | Activity [4] [%] | EC50 [5] [nM] | Activity (Staphylococcus aureus [6]) [%] | Activity (Staphylococcus aureus [7]) [µM] | half-life [8] [h] | AUC [9] [µM·h] | bioavailability [10] [%] |
| --- | --- | --- | --- | --- | --- | --- | --- | --- | --- | --- |
| CCN(C(=O)CCn1c2cc(-c3cnn(C)c3)ccc2nc1[C@H]1CC[C@H](CC)CC1)C1CCCCC1 | 700 | 0.2 | 50 | 67 | 600 | 80 |  |  |  |  |
| CCN(C(=O)CCn1c2cc(-c3ccc(O)cc3)ccc2nc1[C@H]1CC[C@H](CC)CC1)C1CCCCC1 | 29000 | 0.3 | 100 |  | 1800 | 56 |  |  |  |  |
| CCN(C(=O)CCn1c2c(F)cccc2nc1[C@H]1CC[C@H](CC)CC1)C1CCCCC1 | 900 | 0.8 | 40 | 75 | 400 | 68 |  |  |  |  |
| CCN(C(=O)CCn1c(C2CCCN(C(=O)OC(C)(C)C)C2)nc2cc(F)ccc21)C1CCCCC1 (stereo not given) | 1700 | 0.5 | 60 | 4 | 1500 | 64 |  |  |  |  |
| CCN(C(=O)CCn1c2cc(CN(C)C)ccc2nc1[C@H]1CC[C@H](CC)CC1)C1CCCCC1 | > 200000 | 25 | 200000 |  | > 200000 |  |  |  |  |  |
| CCN(C(=O)CCn1c2cc(C(=O)O)ccc2nc1[C@H]1CC[C@H](CC)CC1)C1CCCCC1 | > 200000 | 200 | 147000 |  | > 200000 |  |  |  |  |  |
| CCN(C(=O)CCn1c(-c2ccc(-n3ccnn3)cc2)nc2ccccc21)C1CCCCC1 | > 200000 | 19 | 3800 |  | > 200000 |  |  |  |  |  |
| CCN(C(=O)CCn1c2cc(-c3ccc(CO)cc3)ccc2nc1[C@H]1CC[C@H](CC)CC1)C1CCCCC1 | > 200000 | 4.7 | 300 |  | > 200000 |  |  |  |  |  |
| CCN(C(=O)CCn1c(C2CCCNC2)nc2cc(F)ccc21)C1CCCCC1 (stereo not given) | > 200000 | 200 | 16500 |  | > 200000 |  |  |  |  |  |
| CCN(C(=O)CCn1c2ccc(Br)cc2nc1[C@H]1CC[C@H](CC)CC1)C1CCCCC1 |  |  | < 400 |  |  |  | >200 |  |  |  |
| CC1(C)[C@@H]2CC[C@@]1(C)[C@@H](NC(=O)CCn1c(C3CCCCC3)nc3ccccc31)C2 | 3000 | 3 | 400 |  | 6000 |  | >200 |  |  |  |
| CCN(C(=O)CCn1c2cccc(F)c2nc1[C@H]1CC[C@H](CC)CC1)C1CCCCC1 | 800 | 0.1 | 30 | 58 | 400 | 68 |  |  |  |  |
| CCN(C(=O)CCn1c2cc(C(=O)NC3CC3)ccc2nc1[C@H]1CC[C@H](CC)CC1)C1CCCCC1 | 108000 | 50 | 200000 |  | 90000 |  |  |  |  |  |
| CCOC(=O)N1CCCC(c2nc3cc(F)ccc3n2CCC(=O)N(CC)C2CCCCC2)C1 (stereo not given) | 3300 | 0.4 | 100 |  | 3300 | 68 |  |  |  |  |
| CCNC(=O)N1CCCC(c2nc3cc(F)ccc3n2CCC(=O)N(CC)C2CCCCC2)C1 (stereo not given) | > 200000 | 100 | 28000 |  | > 200000 |  |  |  |  |  |
| CCN(C(=O)CCn1c2cc(-c3cn[nH]c3)ccc2nc1[C@H]1CC[C@H](CC)CC1)C1CCCCC1 | 100000 | 6.3 | 200000 |  | 24000 |  |  |  |  |  |
| CCN(C(=O)CCn1c(C2CCCN(C(C)=O)C2)nc2cc(F)ccc21)C1CCCCC1 (stereo not given) | > 200000 | 100 | 48000 |  | > 200000 |  |  |  |  |  |
| CCN(C(=O)CCn1c(-c2ccc(C(=O)OC)cc2)nc2ccccc21)C1CCCCC1 | 6900 | 1.2 | 100 |  | 4300 | 64 |  |  |  |  |
| CCN(C(=O)CCn1c2cc(F)ccc2nc1[C@H]1CC[C@H](CC)CC1)C1CCCCC1 | 800 | 0.1 | 20 | 42 | 700 | 68 |  |  |  |  |
| CCN(C(=O)CCn1c2ccc(F)cc2nc1[C@H]1CC[C@H](CC)CC1)C1CCCCC1 | 40 | 0.004 | 40 | 54 | 30 | 76 | > 200 | 5 | 0.9 | 15 |
| CCN(C(=O)CCn1c2cc(-c3ccccc3)ccc2nc1[C@H]1CC[C@H](CC)CC1)C1CCCCC1 | 200 | 0.2 | 4 | 12 | 30 | 72 |  |  |  |  |
| CCN(C(=O)CCn1c2cc(CO)ccc2nc1[C@H]1CC[C@H](CC)CC1)C1CCCCC1 | 5400 | 0.5 | 100 |  | 7100 | 68 |  |  |  |  |
| CCN(C(=O)CCn1c(-c2ccc(OCC(F)(F)F)cc2)nc2ccccc21)C1CCCCC1 | 1200 | 0.3 | 40 | 4 | 1100 | 68 |  |  |  |  |
